# Source: PubChem BioAssay (NCI)
#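 The concentration for 50% growth inhibition is given as GI50. At the TGI there is no net growth.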
# Assays:
# Test in all cases: DTP human tumour cell line panel, 384-well format
# MDA-MB-435 melanoma = system: MDA-MB-435 melanoma
# A498 renal = system: A498 renal
# UO-31 renal = system: UO-31 renal
# MOLT-4 leukemia = system: MOLT-4 leukemia
# SF-268 CNS = system: SF-268 CNS
# SNB-75 CNS = system: SNB-75 CNS
# SNB-19 CNS = system: SNB-19 CNS
# KM12 colon = system: KM12 colon
# HT29 colon = system: HT29 colon
# SN12C renal = system: SN12C renal
# NCI-H322M lung = system: NCI-H322M lung
# SK-MEL-2 melanoma = system: SK-MEL-2 melanoma
# SK-MEL-5 melanoma = system: SK-MEL-5 melanoma
smiles,measurement,setting,value
N=C(N)c1ccc2nc(-c3cc(CC(=O)N[C@@H](CC(=O)O)C(=O)O)cc(-c4cc(S(N)(=O)=O)ccc4O)c3O)[nH]c2c1,GI50,MDA-MB-435 melanoma,> 100 µM
same,TGI,MDA-MB-435 melanoma,> 100 µM
same,GI50,A498 renal,> 100 µM
same,TGI,A498 renal,> 100 µM
same,GI50,UO-31 renal,> 100 µM
same,TGI,UO-31 renal,> 100 µM
same,GI50,MOLT-4 leukemia,> 100 µM
same,TGI,MOLT-4 leukemia,> 100 µM
same,GI50,SF-268 CNS,> 100 µM
same,TGI,SF-268 CNS,> 100 µM
same,GI50,SNB-75 CNS,> 100 µM
same,TGI,SNB-75 CNS,> 100 µM
same,GI50,SNB-19 CNS,> 100 µM
same,TGI,SNB-19 CNS,> 100 µM
same,GI50,KM12 colon,> 100 µM
same,TGI,KM12 colon,> 100 µM
same,GI50,HT29 colon,> 100 µM
same,TGI,HT29 colon,> 100 µM
same,GI50,SN12C renal,> 100 µM
same,TGI,SN12C renal,> 100 µM
same,GI50,NCI-H322M lung,> 100 µM
same,TGI,NCI-H322M lung,> 100 µM
same,GI50,SK-MEL-2 melanoma,> 100 µM
same,TGI,SK-MEL-2 melanoma,> 100 µM
same,GI50,SK-MEL-5 melanoma,> 100 µM
same,TGI,SK-MEL-5 melanoma,> 100 µM
